Measured values as given in US20250197387A1, “BCL-XL DEGRADERS AND USES THEREOF” (Kymera Therapeutics, Inc., priority 2021, published 2025).

Columns and labels:
Assay type in all cases: cell-based
BCL-XL [1] = biological target: T1, BCL-XL (Homo sapiens, UniProt Q07817); assay: BCL-XL degradation assay, western blot in MOLT-4 cells, 16 h; conditions: western blot, MOLT-4 cells, 16 h; for Dmax: read-out: Bcl-xL WB in MOLT-4 degradation 16 h: Average Dmax %; for DC50: read-out: Bcl-xL WB in MOLT-4 degradation 16 h: Mean external-Abs DC50
T1 construct: endogenous in cells; host or cells: MOLT-4
In short: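 Infrared-imaged western blots quantified BCL-xL (normalised against beta-actin/GAPDH) after 16 hr, 37° C exposure of MOLT-4 cells to 0.02-10 μM compound; results given as DC50 and Dmax % bins.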

BCL-XL [2] = biological target: T1, BCL-XL; assay: Bcl-xL ELISA degradation in MOLT-4 cells, 6 h; conditions: for DC50: read-out: Bcl-xL ELISA in MOLT-4 degradation 6 h: Mean external-Abs DC50
Description: The letter codes for BCL-XL DC50 include: A (<0.01 μM); B (0.01-0.1 μM); C (>[…]); D (>0.5-1.0 μM); and E (>1.0 μM). The letter codes for Dmax % include A (>75%); B (50 to 75%); C (<50%).

MOLT-4 cells = assay: CTG (CellTiter-Glo) cell viability assay, MOLT-4; conditions: Homo sapiens, MOLT-4, 72 h, 3 day incubation, read-out: CTG Cell Viability Assay - MOLT-4 3 day: Average external-IC50
In short: (§1)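 Nine-point 1:3 compound series topping at 10 μM (0.2% DMSO final) applied for 3 days to 10,000 MOLT-4 or Caki-2 cells per well, 37° C., 5% CO2. CellTiter-Glo luminescence read after 10 min at room temperature; three-parameter fit gave IC50.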

Caki-2 cells = assay: CTG (CellTiter-Glo) cell viability assay, Caki-2; conditions: Homo sapiens, 72 h, 3 day incubation, read-out: CTG Chempartner - Caki-2 3 day: Average external-IC50
In short: as §1

T1 sequence (Q07817 whole entry): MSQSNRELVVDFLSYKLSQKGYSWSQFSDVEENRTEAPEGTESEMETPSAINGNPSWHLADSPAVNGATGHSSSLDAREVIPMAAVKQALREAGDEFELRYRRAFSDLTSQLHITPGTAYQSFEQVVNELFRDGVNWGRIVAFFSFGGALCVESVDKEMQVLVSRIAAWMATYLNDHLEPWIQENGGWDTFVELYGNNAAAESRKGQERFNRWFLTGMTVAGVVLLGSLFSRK

Compound	Dmax (BCL-XL [1]) [%]	DC50 (BCL-XL [1]) [nM]	Dmax (BCL-XL [2]) [%]	DC50 (BCL-XL [2]) [nM]	IC50 (MOLT-4 cells) [nM]	IC50 (Caki-2 cells) [nM]
Cc1ncsc1-c1ccc(CNC(=O)[C@@H]2C[C@@H](O)CC2C(=O)[C@@H](NC(=O)C2(F)CC2)C(C)(C)C)c(OCCCCCCNC(=O)c2nc(N3CCc4cccc(C(=O)Nc5nc6ccccc6s5)c4C3)ccc2-c2cnn(CC3CCCCC3)c2C)c1 (some centres unmarked) [I-158]	50 to 75	100 to 500	< 50	> 1000	1000 to 3000	> 10000
Cc1cc(N(C)c2ccc(-c3cnn(CC4CCCCC4)c3C)c(C(=O)NS(=O)(=O)CCCCC(=O)N[C@H](C(=O)N3C[C@H](O)C[C@H]3C(=O)N[C@@H](C)c3ccc(-c4scnc4C)cc3)C(C)(C)C)n2)nnc1Nc1nc2ccccc2s1 [I-353]	> 75	10 to 100	> 75	100 to 500	1000 to 3000	> 10000
Cc1ncsc1-c1ccc([C@H](C)NC(=O)[C@@H]2C[C@@H](O)CN2C(=O)[C@@H](NC(=O)CCCCCCCS(=O)(=O)NC(=O)c2nc(N3CCc4cccc(C(=O)Nc5nc6cccnc6s5)c4C3)ccc2-c2cnn(CC34CC5CC(CC(C5)C3)C4)c2C)C(C)(C)C)cc1 [I-141]	> 75	< 10	–	–	< 100	1000 to 10000
Cc1ncsc1-c1ccc([C@H](C)NC(=O)[C@@H]2C[C@@H](O)CN2C(=O)[C@@H](NC(=O)CCc2ccc(S(=O)(=O)NC(=O)c3nc(N4CCc5cccc(C(=O)Nc6nc7ccccc7s6)c5C4)ccc3-c3cnn(CC4CCCCC4)c3C)cc2)C(C)(C)C)cc1 [I-123]	> 75	< 10	> 75	10 to 100	< 100	1000 to 10000
Cc1ncsc1-c1ccc([C@H](CC(=O)NCCCCCNC(=O)c2nc(N3CCc4cccc(C(=O)Nc5nc6ccccc6s5)c4C3)ccc2-c2cnn(CC3CCCCC3)c2C)NC(=O)[C@@H]2C[C@@H](O)CN2C(=O)[C@@H](NC(=O)C2(F)CC2)C(C)(C)C)cc1 [I-199]	> 75	10 to 100	–	–	100 to 1000	> 10000
Cc1ncsc1-c1ccc(CNC(=O)[C@@H]2C[C@@H](O)CN2C(=O)[C@@H](NC(=O)C2(F)CC2)C(C)(C)C)c(OCCCCCS(=O)(=O)NC(=O)c2nc(N3CCc4cccc(C(=O)Nc5nc6ccccc6s5)c4C3)ccc2-c2cnn(CC34CC5CC(CC(C5)C3)C4)c2C)c1 [I-121]	> 75	< 10	> 75	10 to 100	< 100	100 to 1000
Cc1ncsc1-c1ccc(CNC(=O)[C@@H]2C[C@@H](O)CN2C(=O)[C@@H](NC(=O)C2(F)CC2)C(C)(C)C)c(OCCN2CCN(C(=O)c3nc(N4CCc5cccc(C(=O)Nc6nc7ccccc7s6)c5C4)ccc3-c3cnn(CC4CCCCC4)c3C)CC2)c1 [I-201]	> 75	10 to 100	–	–	100 to 1000	> 10000
Cc1cc(N(C)c2ccc(-c3cnn(CC4CCCCC4)c3C)c(C(=O)NS(=O)(=O)CCCCCC(=O)N[C@H](C(=O)N3C[C@H](O)C[C@H]3C(=O)N[C@@H](C)c3ccc(-c4scnc4C)cc3)C(C)(C)C)n2)nnc1Nc1nc2ccccc2s1 [I-120]	> 75	10 to 100	–	–	100 to 1000	> 10000
Cc1ncsc1-c1ccc([C@H](C)NC(=O)[C@@H]2C[C@@H](O)CN2C(=O)[C@H](NC(=O)CCCCCCCS(=O)(=O)NC(=O)c2nc(N3CCc4cccc(C(=O)Nc5nc6ccccc6s5)c4C3)ccc2-c2cnn(CC(C)C)c2C)C(C)(C)C)cc1 [I-179]	> 75	10 to 100	> 75	10 to 100	100 to 1000	> 10000
Cc1ncsc1-c1ccc(CNC(=O)[C@@H]2C[C@@H](O)CN2C(=O)[C@@H](NC(=O)C2(F)CC2)C(C)(C)C)c(OCCC2CCN(CC[C@H](CSc3ccccc3)Nc3ccc(S(=O)(=O)NC(=O)c4ccc(N5CCN(CC6=C(c7ccc(Cl)cc7)CCC(C)(C)C6)CC5)cc4)cc3S(=O)(=O)C(F)(F)F)CC2)c1 [I-183]	> 75	< 10	50 to 75	100 to 500	< 100	> 10000
C#Cc1ccc(CNC(=O)[C@@H]2C[C@@H](O)CN2C(=O)[C@@H](NC(=O)CCCCS(=O)(=O)NC(=O)c2nc(N(C)c3cc(C)c(Nc4nc5ccccc5s4)nn3)ccc2-c2cnn(CC3CCCCC3)c2C)C(C)(C)C)cc1 [I-345]	> 75	100 to 500	50 to 75	100 to 500	1000 to 3000	> 10000
Cc1ncsc1-c1ccc(CNC(=O)[C@@H]2C[C@@H](O)CN2C(=O)[C@@H](NC(=O)CCCCCC(=O)N2CCN(CC[C@H](CSc3ccccc3)Nc3ccc(S(=O)(=O)NC(=O)c4ccc(N5CCN(CC6=C(c7ccc(Cl)cc7)CCC(C)(C)C6)CC5)cc4)cc3S(=O)(=O)C(F)(F)F)CC2)C(C)(C)C)cc1 [I-389]	> 75	10 to 100	< 50	> 1000	< 100	1000 to 10000
Cc1ncsc1-c1ccc([C@H](C)NC(=O)[C@@H]2C[C@@H](O)CN2C(=O)[C@@H](NC(=O)c2ccc(CCS(=O)(=O)NC(=O)c3nc(N4CCc5cccc(C(=O)Nc6nc7ccccc7s6)c5C4)ccc3-c3cnn(CC4CCCCC4)c3C)cc2)C(C)(C)C)cc1 [I-143]	> 75	< 10	–	–	< 100	1000 to 10000
Cc1ncsc1-c1ccc([C@H](C)NC(=O)[C@@H]2C[C@@H](O)CN2C(=O)[C@@H](NC(=O)N2CC3(C2)CN(c2ccc(S(=O)(=O)NC(=O)c4nc(N5CCc6cccc(C(=O)Nc7nc8ccccc8s7)c6C5)ccc4-c4cnn(CC5CCCCC5)c4C)cc2)C3)C(C)(C)C)cc1 [I-196]	50 to 75	< 10	–	–	100 to 1000	1000 to 10000
Cc1ncsc1-c1ccc([C@H](C)NC(=O)[C@@H]2C[C@@H](O)CN2C(=O)[C@@H](NC(=O)CCCCCCCCC(=O)N(C)CC#Cc2ccc(OCCCc3sc(N4CCc5cccc(C(=O)Nc6nc7ccccc7s6)c5C4)nc3C(=O)O)c(F)c2)C(C)(C)C)cc1 [I-384]	> 75	< 10	–	–	100 to 1000	1000 to 10000
Cc1cc([C@@H](C(=O)N2C[C@H](O)C[C@H]2C(=O)NCc2ccc(-c3scnc3C)cc2OCCCCCCNC(=O)c2nc(N3CCc4cccc(C(=O)Nc5nc6ccccc6s5)c4C3)ccc2-c2cnn(CC3CCCCC3)c2C)C(C)C)on1 [I-198]	> 75	10 to 100	–	–	< 100	> 10000
Cc1ncsc1-c1ccc([C@H](C)NC(=O)[C@@H]2C[C@@H](O)CN2C(=O)[C@@H](NC(=O)[C@H]2CC[C@H](N3CCC(S(=O)(=O)NC(=O)c4nc(N5CCc6cccc(C(=O)Nc7nc8ccccc8s7)c6C5)ccc4-c4cnn(CC5CCCCC5)c4C)CC3)CC2)C(C)(C)C)cc1 [I-357]	–	–	> 75	100 to 500	1000 to 3000	1000 to 10000
Cc1c(-c2ccc(N3CCc4cccc(C(=O)Nc5nc6cccnc6s5)c4C3)nc2C(=O)NS(=O)(=O)CCCCCC(=O)N[C@H](C(=O)N2C[C@H](O)C[C@H]2C(=O)N[C@H](C)c2ccc(C#N)cc2O)C(C)(C)C)cnn1CC1CCCCC1 (single isomer, unassigned) [I-486]	–	–	> 75	10 to 100	100 to 1000	> 10000
C#Cc1ccc(CNC(=O)[C@@H]2C[C@@H](O)CN2C(=O)[C@@H](NC(=O)CCCCCS(=O)(=O)NC(=O)c2nc(N(C)c3cc(C)c(Nc4nc5cccnc5s4)nn3)ccc2-c2cnn(CC34CC5CC(CC(C5)C3)C4)c2C)C(C)(C)C)cc1 [I-446]	–	–	> 75	10 to 100	100 to 1000	> 10000
